Values of other authors as cited in patent US20070197495A1, “ANTI-PARASITIC COMPOUNDS AND METHODS OF THEIR USE” (THE REGENTS OF THE UNIVERSITY OF CALIFORNIA, priority 2004, published 2007).

Legend:
[1] = test system: T. cruzi; settings: mouse model study (Engel et al. 1998)
[2] = test system: T. cruzi; settings: cruzain inhibitor added to cultures of mammalian cells exposed to trypomastigotes or already infected with amastigotes

Row | Compound | outcome of treatment of T. cruzi-infected mice [1] | replication and differentiation of the parasite [2]
1 | CN1CCN(C(=O)NC(Cc2ccccc2)C(=O)NC(C=CS(=O)(=O)c2ccccc2)CCc2ccccc2)CC1 (centres unmarked) [N-methyl piperazine-Phe-homoPhe-vinyl sulfone phenyl] | cure | –
2 | benzyloxy-carbonyl-L-phenylalanyl L-alanine fluoromethyl ketone [Z-Phe-Ala-FMK] | – | blocks replication and differentiation of the parasite
